Like-named read-outs stand apart in the source and are kept apart here.
How the values were obtained:
FAAH [1] = molecular target: T1, FAAH (Homo sapiens, UniProt O00519); assay: Assay Method 1B: FAAH assay, 3H-anandamide hydrolysis in cell homogenate (T84 or SK-N-MC cells transfected with human FAAH); assay type: biochemical; set-up: expressed in transfected cells; conditions: 3H-AEA 80 nM, rt 1 h, pH 9
T1 sequence (O00519 1-579): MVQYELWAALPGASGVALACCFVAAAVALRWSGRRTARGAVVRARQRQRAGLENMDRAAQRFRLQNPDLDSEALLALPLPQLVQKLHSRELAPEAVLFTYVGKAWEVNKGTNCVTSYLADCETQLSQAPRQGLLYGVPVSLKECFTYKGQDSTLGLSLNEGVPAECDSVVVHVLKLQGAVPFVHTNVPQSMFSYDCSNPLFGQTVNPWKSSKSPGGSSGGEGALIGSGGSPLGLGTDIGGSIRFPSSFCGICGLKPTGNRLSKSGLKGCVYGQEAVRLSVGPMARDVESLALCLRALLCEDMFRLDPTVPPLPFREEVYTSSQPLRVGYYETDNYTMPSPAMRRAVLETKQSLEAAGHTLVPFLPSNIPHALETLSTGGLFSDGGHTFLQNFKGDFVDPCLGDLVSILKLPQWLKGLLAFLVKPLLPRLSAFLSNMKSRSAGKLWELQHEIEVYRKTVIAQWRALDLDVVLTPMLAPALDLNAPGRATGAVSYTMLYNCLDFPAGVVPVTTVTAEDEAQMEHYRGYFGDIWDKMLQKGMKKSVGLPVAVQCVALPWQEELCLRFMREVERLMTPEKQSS

[2] = Solubility determination in water; assay type: physicochemical; conditions: thermodynamic from solid; in water at 5, 1 and 0.1 mg/mL; pH of resulting solutions 7-8.5
Procedure: Physical Chemical Properties
Solubility determinations were made by mixing the test compound in water at 5 mg/mL, 1 mg/mL, and 0.1 mg/mL concentrations. The pH of the resulting solutions was 7-8.5.

FAAH [3] = molecular target: T2, FAAH (Rattus norvegicus, UniProt P97612); assay: Assay Method 1A: FAAH enzyme assay, 14C-oleamide hydrolysis, solubilized liver plasma membrane extract;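 further: ki obtained by Dixon analysis, taking the x-intercept of inhibitor concentration versus reciprocal rate plots at fixed substrate level and correcting for substrate concentration relative to Km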
T2 sequence (P97612 1-579): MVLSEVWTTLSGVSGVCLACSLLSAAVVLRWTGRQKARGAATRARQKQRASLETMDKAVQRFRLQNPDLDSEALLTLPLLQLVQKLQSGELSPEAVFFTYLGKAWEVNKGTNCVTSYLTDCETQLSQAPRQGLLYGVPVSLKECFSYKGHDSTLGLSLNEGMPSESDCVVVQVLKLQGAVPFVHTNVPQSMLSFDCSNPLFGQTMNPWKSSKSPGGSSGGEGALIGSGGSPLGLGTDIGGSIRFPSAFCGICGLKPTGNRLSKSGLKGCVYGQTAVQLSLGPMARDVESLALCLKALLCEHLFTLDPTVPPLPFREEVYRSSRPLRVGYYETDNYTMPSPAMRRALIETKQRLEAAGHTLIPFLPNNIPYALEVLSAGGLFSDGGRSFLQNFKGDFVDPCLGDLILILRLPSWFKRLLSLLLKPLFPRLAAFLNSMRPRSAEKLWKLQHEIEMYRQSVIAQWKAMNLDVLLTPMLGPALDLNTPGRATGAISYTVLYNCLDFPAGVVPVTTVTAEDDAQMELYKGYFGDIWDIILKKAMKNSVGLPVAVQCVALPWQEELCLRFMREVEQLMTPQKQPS
Procedure: Linear least squares fits were used for all reaction progress curves and R^2 values were consistently >0.97. […] Ki values were determined by the Dixon Method (x-intercepts of weighted linear fits of [I] versus 1/rate plots at constant substrate concentration, which were converted to Ki values using the formula Ki=−xint/[1+[S]/Km]).

SMILES	IC50 (FAAH [1]) [nM]	solubility [2] [µg/mL]	Ki (FAAH [3]; read-out: Assay 1A Ki, liver plasma membrane extract containing FAAH, 14C-oleamide, pH 9.0, 20-23 °C, Dixon method) [nM]	Ki (FAAH [3]) [nM]
O=C(O)c1cccc(-c2cnc(C(=O)CCCCCCc3ccccc3)o2)n1 [Example 37, 6-(2-(7-Phenylheptanoyl)oxazol-5-yl)picolinic acid]	0.4	> 5000	20	–
O=C(O)c1ccc(-c2cnc(C(=O)CCCCCCc3ccccc3)o2)nc1 [Example 38, 6-(2-(7-Phenylheptanoyl)oxazol-5-yl)nicotinic acid]	0.2	> 5000	–	7
